These results are taken from US9738902B2, “Modified PYR/PYL receptors activated by ligands” (priority 2013, dated 2017).

The target in experiment [1] is T1, 6×-His-GFP-PYR1^MANDI and GFP-HAB1 (Arabidopsis thaliana, UniProt O49686, F108A/F159L/K59R/S122G/V81I/Y58H).
T1 construct: expressed in transfected cells; host or cells: Nicotiana benthamiana leaves, Agrobacterium tumefaciens GV3101 infiltration
In words: co-precipitation after transient co-expression in leaves. In kind it is in vivo, Nicotiana benthamiana. The conditions noted are these: 50 μM mandipropamid, 20 hours. The text has this: We therefore investigated if the mandipropamid promoted interaction between PYR1^MANDI and the PP2C HAB1 could be observed using similar experiments. To conduct these experiments PYR1^MANDI was cloned as a 6×-His-GFP fusion protein in the vector pEGAD (Cutler et al., 2000). HAB1 was cloned as a GFP fusion protein in the vector pEGAD. Both constructs were transformed into Agrobacterium tumefaciens (GV3101) and utilized in transient expression experiments. The Agrobacterium strains harboring the receptor, PP2C and the silencing suppressor p19 were mixed together in ratios corresponding to 0.1, 1.0 and 0.5 final OD600 units respectively. The mixture was infiltrated into two separate N. benthamiana leaves and 2 days later the leaves were treated with either 50 μM mandipropamid or mock solutions made in water containing 0.02% Silwet L-77. 20 hours later the leaves were homogenized in liquid nitrogen, re-suspended in an extraction buffer composed of 1×TBS, 0.1% NP-40, 1 mM DTT, 10% glycerol, and 1× plant protease inhibitor cocktail (Sigma, USA) and clarified by centrifugation. […] Both PYR1^MANDI and HAB1 were expressed as GFP fusion proteins and could therefore be detected with an anti-GFP antibody. The blots were probed with an anti-GFP monoclonal primary antibody and detected using an anti-mouse IgG-HP sheep secondary antibody using ECL (Amersham, USA) development.

In experiment [2] the test system is wild type. In words: qRT-PCR of ABA-regulated genes RD29B and RAB18. The conditions noted are these: 2 μM mandipropamid, 8 hours. In kind it is in vivo, Arabidopsis. The protocol:
(§1) One of ABA's major effects is to regulate gene expression. We therefore examined the effects of ABA and mandipropamid on gene expression in wild type, PYR-OX, MDP1 and MPD2 transgenic plants. Seed of the wild type or transgenic lines were surface sterilized, stratified for 4 days at 4° C. and then grown for 10 days at room temperature under continuous illumination in a liquid culture consisting of 0.5×MS salts and 0.5% sucrose and grown with continuous shaking to provide aeration. After 10 days, the culture solutions were adjusted to contain 50 μM ABA, 2 μM mandipropamid, or a mock treatment. After 8 hours exposure to the test compounds RNA was isolated using RNAEasy™ Plant RNA isolation kit (Qiagen, USA) and treated with DNAse. The purified RNA was utilized in qRT-PCR reactions using primers for the ABA-regulated genes RD29B or RAB18. Biological triplicate and triple technical replicate measurements were conducted. To perform qRT-PCR analyses, cDNA was generated from 5 μg of total RNA using superscript reverse transcriptase III (Invitrogen, USA), in reaction mixture containing a oligo-dT20 (SEQ ID NO:110) and a ribosomal RNA primer. Real-time quantitative PCR analysis was performed by ΔCt method of relative quantification. PCR mixtures contained cDNA, Maxima® SYBR green/Fluorescein qPCR master mix (Fermentas, USA) and 330 nM of each gene-specific primer. RT-PCRs were conducted using a BioRad CFX96 Real-Time PCR System and the data were processed using the BioRad CFX Manager software (BioRad, USA). PCRs were performed under the following cycling conditions: 3 min at 95° C., followed by 40 cycles of 10 sec at 95° C., 10 sec at 55° C. and 30 sec at 72° C. in 96-well optical reaction plates (BioRad, USA). The specificity of amplicons was verified by melting curve (disassociation) analysis (60-95° C.) after 40 cycles. Input cDNA was normalized using an internal control gene, PEX4 (AT5G25760).

In experiment [3] the test system is MDP1 and MDP2 transgenic plants. In words: qRT-PCR of ABA-regulated genes RD29B and RAB18. In kind it is in vivo, Arabidopsis. The following applies: MDP1 and MDP2, 2 μM mandipropamid, 8 hours. The protocol: as §1
Experiment [4] has as its system PYR1-OX. In words: qRT-PCR of ABA-regulated genes RD29B and RAB18. In kind it is in vivo, Arabidopsis. The conditions noted are these: 2 μM mandipropamid, 8 hours. The method, then: as §1
In experiment [5] the target is T2, PYR1 Y58H K59R F108A S122G (Arabidopsis thaliana, UniProt O49686, F108A/K59R/S122G/Y58H).
T2 construct: expressed in transfected cells; host or cells: S. cerevisiae Y190 pACT-HAB1
T2 sequence (O49686 whole entry Y58H/K59R/F108A/S122G): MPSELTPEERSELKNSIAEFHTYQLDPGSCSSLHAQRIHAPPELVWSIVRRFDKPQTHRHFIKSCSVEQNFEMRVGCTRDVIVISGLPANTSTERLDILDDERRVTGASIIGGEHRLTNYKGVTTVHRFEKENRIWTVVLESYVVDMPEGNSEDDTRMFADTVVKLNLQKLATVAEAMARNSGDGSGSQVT
T2 sequence (Q9CAJ0 23-511 partner): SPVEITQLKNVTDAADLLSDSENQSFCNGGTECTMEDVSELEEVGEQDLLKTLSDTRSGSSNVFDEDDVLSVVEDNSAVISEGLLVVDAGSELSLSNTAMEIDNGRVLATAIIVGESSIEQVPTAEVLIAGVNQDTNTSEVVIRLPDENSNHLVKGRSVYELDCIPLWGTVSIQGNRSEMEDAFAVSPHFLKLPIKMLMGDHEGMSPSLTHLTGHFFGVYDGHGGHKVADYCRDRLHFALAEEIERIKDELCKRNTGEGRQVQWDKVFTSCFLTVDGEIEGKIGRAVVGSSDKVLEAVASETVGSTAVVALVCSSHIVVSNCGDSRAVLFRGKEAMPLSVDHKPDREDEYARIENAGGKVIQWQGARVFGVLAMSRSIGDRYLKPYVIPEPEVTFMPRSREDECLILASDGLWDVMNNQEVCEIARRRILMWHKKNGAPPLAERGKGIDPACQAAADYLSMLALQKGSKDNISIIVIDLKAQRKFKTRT
In words: Y2H Recombination Mutagenesis (HAB1, X-gal). In kind it is cell-based. The text has this:
As a second approach, we used recombination-based mutagenesis to search for mutant combinations that enhance the sensitivity of PYR1^K59R,F108A,S122G to mandipropamid. Nucleotide excision and exchange technology (NExT) (Müller et al., 2005) was used to mutagenize an equal amount of PYR1^K59R,F108A,S122G template with an equal amount of template DNA that was made by pooling plasmid DNA from the NNK plasmid libraries made above for each of the 23 ligand-contacting residues in the PYR1^K59R,F108A,S122G backbone. Thus, PYR1^K59R,F108A,S122G was mutagenized with recombination-based mutagenesis using a library of pocket site mutations. An ˜200,000 member library of mutagenized clones was generated and was transformed into the MAV99 pACT-HAB1 reporter strain. Selections were conducted on plates containing 0.5 μM mandipropamid and appropriate nutrients and amino acids. To establish if strain growth was ligand dependent, the positive clones were subsequently tested for growth on selective plates lacking mandipropamid. Next, plasmids were isolated from strains showing ligand-dependent growth and the mandipropamid sensitivity of mutant receptors characterized using X-gal staining (after transformation into the into the Y190 pACT-HAB1 reporter strain). […]

T1 sequence (O49686 whole entry Y58H/K59R/V81I/F108A/S122G/F159L): as the sequence (O49686 whole entry Y58H/K59R/F108A/S122G) above, with V81I, F159L counted along it
T1 sequence (Q9CAJ0 23-511 partner): as the sequence (Q9CAJ0 23-511 partner) above

With `C#CCOc1ccc(CCNC(=O)C(OCC#C)c2ccc(Cl)cc2)cc1OC` (centres unmarked) [Mandipropamid, mandipropamid], in experiment [1], the “interaction of 6×-His-GFP-PYR1^MANDI and GFP-HAB1 in planta” value is given as “mandipropamid-dependent physical interaction”. In addition, the “transcription of RD29B and RAB18” value in experiment [2] is on record as “does not do so”; in experiment [3], “high-level transcription”; in experiment [4] it was “does not do so”. For the same compound, in experiment [5], the Threshold came to 0.25 µM.
